Here are results for 8 compounds from patent publication US20180235221A1 (priority 2015, published 2018).

For assay [1], the system named is Qol resistant Septoria tritici isolate (3573). The experiment in a line: Microtest, activity against causal agent of leaf blotch Septoria tritici. In kind it is cell-based. To be noted: single active compound, MTP, 405 nm, 7 days after inoculation.
Assay [2] relates to Qol resistant Alternaria solani isolate (141). As to the kind of experiment: Microtest, activity against early blight pathogen Alternaria solani. The format is cell-based. Conditions: single active compound, MTP, 405 nm, 7 days after inoculation.

For `CNC(=O)C(=N/OC)/C(C)=C\COc1ccn(-c2ccc(Cl)cc2)n1` [Compound I-1, (Z,2E)-5-[1-(4-chlorophenyl)pyrazol-3-yl]oxy-2-methoxyimino-N,3-dimethyl-pent-3-enamide], the Observed efficacy is on record as 10% in assay [1] (0.016 ppm), 21% in assay [1] (0.063 ppm), 49% in assay [1] (0.25 ppm) and 0% in assay [2] (0.25 ppm).

Regarding `CNC(=O)C(=N/OC)/C(C)=C\COc1ccn(-c2ccc(Cl)cc2Cl)n1` [Compound I-3, (Z,2E)-5-[1-(2,4-dichlorophenyl)pyrazol-3-yl]oxy-2-methoxyimino-N,3-dimethyl-pent-3-en-amide], the Observed efficacy in assay [1] (0.016 ppm) is 10%; in assay [1] (0.063 ppm), 32%; in assay [2] (0.063 ppm), 0%; in assay [2] (0.25 ppm), 0%.

On to `Cn1nnn(-c2cccc(Cl)c2COc2ccn(-c3ccc(Cl)cc3)n2)c1=O` [II-1, 1-[3-chloro-2[[1-(4-chlorophenyl)-1H-pyrazol-3-yl]oxymethyl]phenyl]-4-methyl-tetrazol-5-one], for which the values for the Observed efficacy in assay [1] (0.25 ppm), in assay [2] (0.016 ppm) and in assay [2] (0.063 ppm) were 23%, 0% and 0%, respectively.

For the compound `Cn1nnn(-c2cccc(Br)c2COc2ccn(-c3ccc(Cl)cc3)n2)c1=O` [II-2, 1-[3-bromo-2-[[1-(4-chlorophenyl)pyrazol-3-yl]oxymethyl]phenyl]-4-methyl-tetrazol-5-one], the Observed efficacy in assay [2] (0.016 ppm), in assay [2] (0.063 ppm) and in assay [2] (0.25 ppm) was 0% throughout.

For `Cc1cccc(-n2nnn(C)c2=O)c1COc1ccn(-c2ccc(Cl)cc2)n1` [II-3, 1-[2-[[1-(4-chlorophenyl)pyrazol-3-yl]oxymethyl]-3-methyl-phenyl]-4-methyl-tetrazol-5-one], the Observed efficacy worked out at 17% in assay [1] (0.25 ppm) and 0% in assay [2] (0.016 ppm).

`Cn1nnn(-c2cccc(F)c2COc2ccn(-c3ccc(Cl)cc3)n2)c1=O` [II-4, 1-[2-[[1-(4-chlorophenyl)pyrazol-3-yl]oxymethyl]-3-fluoro-phenyl]-4-methyl-tetrazol-5-one]: the Observed efficacy in assay [2] (0.016 ppm) and in assay [2] (0.063 ppm) was 0% each time.

`Cn1nnn(-c2cccc(F)c2COc2ccn(-c3ccc(Cl)cc3Cl)n2)c1=O` [II-5, 1-[2-[[1-(2,4-dichlorophenyl)pyrazol-3-yl]oxymethyl]-3-fluoro-phenyl]-4-methyl-tetrazol-5-one] registered an Observed efficacy in assay [2] (0.016 ppm) of 6%.

Take `CC(=NOCc1c(C)cccc1-n1nnn(C)c1=O)c1cccc(C(F)(F)F)c1` [II-11, -methyl-4-[3-methyl-2-[[1-[3-(trifluoromethyl)-phenyl]-ethylideneamino]oxymethyl]phenyl]tetrazol-5-one]: the Observed efficacy in assay [2] (0.016 ppm) is on record as 0%; in assay [2] (0.063 ppm), 0%; in assay [2] (0.25 ppm), 15%.
